# Assay results taken from patent publication US20230082430A1 (C4 Therapeutics, Inc., priority 2019, published 2023).
# pIC50: −log10 of the molar value. Counter-ions that a name gives are not always drawn.
# Test system: NCIH929.1 cells
# Test: Cell viability assay for Table 2 (CellTiter-Glo 2.0, ATP quantification, 96 hr)
# Format: cell-based
# Conditions: 96 h, NCIH929.1 cell viability, 96 hr, top concentration 1 μM, 14 points half log titration; read-out: IC50
# Source text: Cell Viability Assay for Table 2
# CellTiter-Glo® 2.0 Assay was purchased from Promega (Madison, Wis., USA). NCIH929.1 cell line was purchased from ATCC (Manassas, Va., USA). Cell culture flasks and 384-well microplates were acquired from VWR (Radnor, Pa., USA).
row,Structure (SMILES),pIC50
1,"O=C1CCC(N2C(=O)c3cccc4c(Cc5cnn(C6CCN(CC7(C(F)(F)F)CCC7)CC6)c5)ccc2c34)C(=O)N1 (centres unmarked) [Compound 57, 3-(2-oxo-6-((1-(1-((1-(trifluoromethyl)cyclobutyl)methyl)piperidin-4-yl)-1H-pyrazol-4-yl)methyl)benzo[cd]indol-1(2H)-yl)piperidine-2,6-dione]",> 9.00
2,"COC(C)(C)CN1CCC(n2cc(Cc3ccc4c5c(cccc35)C(=O)N4C3CCC(=O)NC3=O)cn2)CC1 (centres unmarked) [Compound 58, 3-(6-((1-(1-(2-methoxy-2-methylpropyl)piperidin-4-yl)-1H-pyrazol-4-yl)methyl)-2-oxobenzo[cd]indol-1(2H)-yl)piperidine-2,6-dione]",> 9.00
3,"O=C1CCC(N2C(=O)c3cccc4c(Cc5cnn(C6CCN(CC7(F)CCC7)CC6)c5)ccc2c34)C(=O)N1 (centres unmarked) [Compound 59, 3-(6-((1-(1-((1-fluorocyclobutyl)methyl)piperidin-4-yl)-1H-pyrazol-4-yl)methyl)-2-oxobenzo[cd]indol-1(2H)-yl)piperidine-2,6-dione]",> 9.00
4,"N#CC1(CN2CCC(n3cc(Cc4ccc5c6c(cccc46)C(=O)N5C4CCC(=O)NC4=O)cn3)CC2)CCC1 (centres unmarked) [Compound 60, 1-((4-(4-((1-(2,6-dioxopiperidin-3-yl)-2-oxo-1,2-dihydrobenzo[cd]indol-6-yl)methyl)-1H-pyrazol-1-yl)piperidin-1-yl)methyl)cyclobutane-1-carbonitrile]",> 9.00
5,"CC(C)(C#N)CN1CCC(n2cc(Cc3ccc4c5c(cccc35)C(=O)N4C3CCC(=O)NC3=O)cn2)CC1 (centres unmarked) [Compound 61, 3-(4-(4-((1-(2,6-dioxopiperidin-3-yl)-2-oxo-1,2-dihydrobenzo[cd]indol-6-yl)methyl)-1H-pyrazol-1-yl)piperidin-1-yl)-2,2-dimethylpropanenitrile]",> 9.00
6,"O=C1CCC(N2C(=O)c3cccc4c(Cc5cnn(C6CCN(CC7(C(F)(F)F)CC7)CC6)c5)ccc2c34)C(=O)N1 (centres unmarked) [Compound 62, 3-(2-oxo-6-((1-(1-((1-(trifluoromethyl)cyclopropyl)methyl)piperidin-4-yl)-1H-pyrazol-4-yl)methyl)benzo[cd]indol-1(2H)-yl)piperidine-2,6-dione]",> 9.00
7,"CC(C)(C)CN1CCC(n2cc(Cc3ccc4c5c(cccc35)C(=O)N4C3CCC(=O)NC3=O)cn2)CC1 (centres unmarked) [Compound 63, 3-(6-((1-(1-neopentylpiperidin-4-yl)-1H-pyrazol-4-yl)methyl)-2-oxobenzo[cd]indol-1(2H)-yl)piperidine-2,6-dione]",> 9.00
8,"CC1(CN2CCC(n3cc(Cc4ccc5c6c(cccc46)C(=O)N5C4CCC(=O)NC4=O)cn3)CC2)CC1 (centres unmarked) [Compound 64, 3-[6-[[1-[1-[(1-methylcyclopropyl)methyl]-4-piperidyl]pyrazol-4-yl]methyl]-2-oxo-benzo[cd]indol-1-yl]piperidine-2,6-dione]",> 9.00
9,"O=C1CCC(N2C(=O)c3cccc4c(Cc5cnn(C6CCN(CC7(F)CC7)CC6)c5)ccc2c34)C(=O)N1 (centres unmarked) [Compound 65, 3-(6-((1-(1-((1-fluorocyclopropyl)methyl)piperidin-4-yl)-1H-pyrazol-4-yl)methyl)-2-oxobenzo[cd]indol-1(2H)-yl)piperidine-2,6-dione]",> 9.00
10,"COC1(CN2CCC(n3cc(Cc4ccc5c6c(cccc46)C(=O)N5C4CCC(=O)NC4=O)cn3)CC2)CC1 (centres unmarked) [Compound 66, 3-(6-((1-(1-((1-methoxycyclopropyl)methyl)piperidin-4-yl)-1H-pyrazol-4-yl)methyl)-2-oxobenzo[cd]indol-1(2H)-yl)piperidine-2,6-dione]",> 9.00
11,"CC1(n2cc(Cc3ccc4c5c(cccc35)C(=O)N4C3CCC(=O)NC3=O)cn2)CCNCC1 (centres unmarked) [Compound 69, 3-(6-((1-(4-methylpiperidin-4-yl)-1H-pyrazol-4-yl)methyl)-2-oxobenzo[cd]indol-1(2H)-yl)piperidine-2,6-dione hydrochloride]",> 7.00
12,"CC1(n2cc(Cc3ccc4c5c(cccc35)C(=O)N4C3CCC(=O)NC3=O)cn2)CCN(C(=O)C23C4C5C6C4C2C6C53)CC1 (stereo not drawn) [Compound 70, 3-(6-((1-(l-(cubane-1-carbonyl)-4-methylpiperidin-4-yl)-1H-pyrazol-4-yl)methyl)-2-oxobenzo[cd]indol-1(2H)-yl)piperidine-2,6-dione]",> 9.00
13,"CC1(n2cc(Cc3ccc4c5c(cccc35)C(=O)N4C3CCC(=O)NC3=O)cn2)CCN(C(=O)C23COC(C2)C3)CC1 (centres unmarked) [Compound 71, 3-(6-{1-[4-Methyl-1-(2-oxa-bicyclo[2.1.1]hexane-4-carbonyl)-piperidin-4-yl]-1H-pyrazol-4-ylmethyl}-2-oxo-2H-benzo[cd]indol-1-yl)-piperidine-2,6-dione]",> 9.00
14,"CC1(n2cc(Cc3ccc4c5c(cccc35)C(=O)N4C3CCC(=O)NC3=O)cn2)CCN(C(=O)C2(C#N)CCCCC2)CC1 (centres unmarked) [Compound 72, 1-(4-(4-((1-(2,6-dioxopiperidin-3-yl)-2-oxo-1,2-dihydrobenzo[cd]indol-6-yl)methyl)-1H-pyrazol-1-yl)-4-methylpiperidine-1-carbonyl)cyclohexane-1-carbonitrile]",> 9.00
15,"CC1(n2cc(Cc3ccc4c5c(cccc35)C(=O)N4C3CCC(=O)NC3=O)cn2)CCN(C(=O)C23CCN(CC2)CC3)CC1 (stereo not drawn) [Compound 73, 3-(6-((l-(4-methyl-1-(quinuclidine-4-carbonyl)piperidin-4-yl)-1H-pyrazol-4-yl)methyl)-2-oxobenzo[cd]indol-1(2H)-yl)piperidine-2,6-dione]",> 7.00
16,"CC1(n2cc(Cc3ccc4c5c(cccc35)C(=O)N4C3CCC(=O)NC3=O)cn2)CCN(C(=O)C23CCN(CC2)C3)CC1 (centres unmarked) [Compound 74, 3-(6-((1-(1-(1-azabicydo[2.2.1]heptane-4-carbonyl)-4-methylpiperidin-4-yl)-1H-pyrazol-4-yl)methyl)-2-oxobenzo[cd]indol-1(2H)-yl)piperidine-2,6-dione]",> 7.00
17,"CC(=O)N1CCC(C)(n2cc(Cc3ccc4c5c(cccc35)C(=O)N4C3CCC(=O)NC3=O)cn2)CC1 (centres unmarked) [Compound 75, 3-(6-((1-(1-acetyl-4-methylpiperidin-4-yl)-1H-pyrazol-4-yl)methyl)-2-oxobenzo[cd]indol-1(2H)-yl)piperidine-2,6-dione]",> 9.00
18,"CC1(n2cc(Cc3ccc4c5c(cccc35)C(=O)N4C3CCC(=O)NC3=O)cn2)CCN(C(=O)C2(C(F)F)CC2)CC1 (centres unmarked) [Compound 76, 3-(6-((1-(1-(1-(difluoromethyl)cyclopropane-1-carbonyl)-4-methylpiperidin-4-yl)-1H-pyrazol-4-yl)methyl)-2-oxobenzo[cd]indol-1(2H)-yl)piperidine-2,6-dione]",> 9.00
19,"CC1(n2cc(Cc3ccc4c5c(cccc35)C(=O)N4C3CCC(=O)NC3=O)cn2)CCN(C(=O)C2(C(F)(F)F)CC2)CC1 (centres unmarked) [Compound 77, 3-(6-((1-(4-methyl-1-(1-(trifluoromethyl)cyclopropane-1-carbonyl)piperidin-4-yl)-1H-pyrazol-4-yl)methyl)-2-oxobenzo[cd]indol-1(2H)-yl)piperidine-2,6-dione]",> 9.00
20,"CC1(n2cc(Cc3ccc4c5c(cccc35)C(=O)N4C3CCC(=O)NC3=O)cn2)CCN(C(=O)C2(C(F)(F)F)CCC2)CC1 (centres unmarked) [Compound 78, 3-(6-((1-(4-methyl-1-(1-(trifluoromethyl)cyclobutane-1-carbonyl)piperidin-4-yl)-1H-pyrazol-4-yl)methyl)-2-oxobenzo[cd]indol-1(2H)-yl)piperidine-2,6-dione]",> 9.00
